Reference: ChEMBL document CHEMBL2029226, “Molecular Insights into Human Monoamine Oxidase B Inhibition by the Glitazone Anti-Diabetes Drugs” (ACS Med Chem Lett, 2012)
pKi: −log10 of the molar value. Activity calls are given as the source filed them. No cut-off for these calls is given here.

Experiments:
[1] = molecular target: T1, Amine oxidase [flavin-containing] A (Rattus norvegicus, UniProt P21396); assay: Uncompetitive inhibition of rat MAOA expressed in Pichia pastoris
T1 sequence (P21396 whole entry): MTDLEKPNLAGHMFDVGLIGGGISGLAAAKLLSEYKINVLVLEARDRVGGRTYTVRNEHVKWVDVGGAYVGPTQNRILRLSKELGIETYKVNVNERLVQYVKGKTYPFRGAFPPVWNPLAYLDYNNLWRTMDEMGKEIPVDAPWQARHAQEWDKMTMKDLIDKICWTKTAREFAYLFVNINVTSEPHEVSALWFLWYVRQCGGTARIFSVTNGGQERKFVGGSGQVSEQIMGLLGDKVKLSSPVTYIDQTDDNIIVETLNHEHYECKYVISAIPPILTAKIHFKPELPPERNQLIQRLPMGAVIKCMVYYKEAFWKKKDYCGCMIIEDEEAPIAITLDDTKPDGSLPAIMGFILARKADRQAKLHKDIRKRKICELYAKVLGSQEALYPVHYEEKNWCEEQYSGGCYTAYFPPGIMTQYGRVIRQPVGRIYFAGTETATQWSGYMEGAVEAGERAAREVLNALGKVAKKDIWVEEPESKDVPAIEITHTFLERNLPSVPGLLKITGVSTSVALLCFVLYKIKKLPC

[2] = molecular target: T2, Amine oxidase [flavin-containing] B (Rattus norvegicus, UniProt P19643); assay: Uncompetitive inhibition of rat MAOB expressed in Pichia pastoris
T2 sequence (P19643 whole entry): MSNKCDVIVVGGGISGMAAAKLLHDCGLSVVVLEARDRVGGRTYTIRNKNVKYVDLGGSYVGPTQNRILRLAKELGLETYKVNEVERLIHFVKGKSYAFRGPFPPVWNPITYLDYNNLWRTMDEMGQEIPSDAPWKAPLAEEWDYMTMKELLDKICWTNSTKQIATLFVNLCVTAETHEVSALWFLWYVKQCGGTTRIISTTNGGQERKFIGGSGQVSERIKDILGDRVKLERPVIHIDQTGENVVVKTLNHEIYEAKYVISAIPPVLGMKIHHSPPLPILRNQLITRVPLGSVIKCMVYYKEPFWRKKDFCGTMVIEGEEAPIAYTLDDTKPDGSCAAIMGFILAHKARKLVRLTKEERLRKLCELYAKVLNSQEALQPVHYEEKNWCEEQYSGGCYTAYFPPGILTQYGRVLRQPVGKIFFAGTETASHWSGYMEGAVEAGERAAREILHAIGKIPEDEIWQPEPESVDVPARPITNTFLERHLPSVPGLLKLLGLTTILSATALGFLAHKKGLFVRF

[3] = molecular target: T3, Amine oxidase [flavin-containing] A (Homo sapiens, UniProt P21397); assay: Uncompetitive inhibition of human MAOA expressed in Pichia pastoris
T3 sequence (P21397 whole entry): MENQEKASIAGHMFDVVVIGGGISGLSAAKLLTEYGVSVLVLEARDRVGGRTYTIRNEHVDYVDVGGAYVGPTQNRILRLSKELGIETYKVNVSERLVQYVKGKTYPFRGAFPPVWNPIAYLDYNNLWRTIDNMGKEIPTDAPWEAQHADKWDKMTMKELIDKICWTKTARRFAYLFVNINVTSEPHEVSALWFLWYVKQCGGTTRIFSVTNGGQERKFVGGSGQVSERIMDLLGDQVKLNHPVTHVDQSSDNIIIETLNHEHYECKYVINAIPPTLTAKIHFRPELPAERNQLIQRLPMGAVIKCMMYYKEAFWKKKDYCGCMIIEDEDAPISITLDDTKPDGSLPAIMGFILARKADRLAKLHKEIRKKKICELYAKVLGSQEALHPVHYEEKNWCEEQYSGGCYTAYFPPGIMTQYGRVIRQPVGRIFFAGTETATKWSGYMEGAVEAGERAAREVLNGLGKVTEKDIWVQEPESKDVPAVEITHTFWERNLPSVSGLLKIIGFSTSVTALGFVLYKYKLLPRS

[4] = molecular target: Lysine-specific histone demethylase 1A (Homo sapiens) (UniProt O60341); assay: Inhibition of human histone demethylase LSD1 up to 100 uM
[5] = molecular target: T4, Amine oxidase [flavin-containing] B (Homo sapiens, UniProt P27338); assay: Uncompetitive inhibition of human MAOB expressed in Pichia pastoris
T4 sequence (P27338 whole entry): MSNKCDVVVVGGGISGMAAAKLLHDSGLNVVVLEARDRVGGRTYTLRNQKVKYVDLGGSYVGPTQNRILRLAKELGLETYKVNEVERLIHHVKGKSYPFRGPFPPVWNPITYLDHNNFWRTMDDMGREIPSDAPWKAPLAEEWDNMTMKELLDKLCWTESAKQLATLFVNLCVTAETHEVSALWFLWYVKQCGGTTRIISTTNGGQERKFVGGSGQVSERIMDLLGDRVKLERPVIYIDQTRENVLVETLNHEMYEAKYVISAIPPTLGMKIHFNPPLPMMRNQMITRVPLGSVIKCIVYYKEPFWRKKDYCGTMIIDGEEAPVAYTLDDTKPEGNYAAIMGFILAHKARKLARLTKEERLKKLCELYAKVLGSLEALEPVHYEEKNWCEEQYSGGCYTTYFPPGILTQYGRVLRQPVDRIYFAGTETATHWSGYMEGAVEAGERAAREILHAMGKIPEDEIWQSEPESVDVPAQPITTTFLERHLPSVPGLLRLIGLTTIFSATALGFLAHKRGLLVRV

[6] = molecular target: T2, Amine oxidase [flavin-containing] B; assay: Competitive inhibition of rat MAOB expressed in Pichia pastoris
[7] = molecular target: T1, Amine oxidase [flavin-containing] A; assay: Inhibition of rat MAOA expressed in Pichia pastoris at 100 uM
[8] = molecular target: T3, Amine oxidase [flavin-containing] A; assay: Inhibition of human MAOA expressed in Pichia pastoris at 100 uM
[9] = molecular target: T3, Amine oxidase [flavin-containing] A; assay: Competitive inhibition of human MAOA expressed in Pichia pastoris
[10] = molecular target: T4, Amine oxidase [flavin-containing] B; assay: Competitive inhibition of human MAOB expressed in Pichia pastoris
[11] = molecular target: T1, Amine oxidase [flavin-containing] A; assay: Competitive inhibition of rat MAOA expressed in Pichia pastoris

| SMILES | pKi [1] | pKi [2] | pKi [3] | inhibition [4] | pKi [5] | pKi [6] | inhibition (INH) [7] | inhibition (INH) [8] | pKi [9] | pKi [10] | pKi [11] |
| --- | --- | --- | --- | --- | --- | --- | --- | --- | --- | --- | --- |
| Cc1c(C)c2c(c(C)c1O)CCC(C)(COc1ccc(CC3SC(=O)NC3=O)cc1)O2 (centres undefined) [TROGLITAZONE] | 5.32 | 4.96 | 4.98 | inactive | 5.02 | – | – | – | – | – | – |
| CCc1ccc(CCOc2ccc(CC3SC(=O)NC3=O)cc2)nc1 (racemic) [PIOGLITAZONE] | – | – | – | inactive | – | 5.68 | Not Active | Not Active | – | – | – |
| CN(CCOc1ccc(CC2SC(=O)NC2=O)cc1)c1ccccn1 (racemic) [ROSIGLITAZONE] | – | – | – | inactive | – | 5.24 | – | – | 4.56 | 5.38 | 4.49 |
